The values that follow come from PubChem BioAssay (NCI).

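Interpolation was linear, between the two tested concentrations surrounding the appropriate level; five concentrations were tested over 48 hours in 96-well plates. Definition used: TGI = concentration required for complete inhibition of growth.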

Some test systems named below: SN12C renal; SNB-75 CNS; HCT-116 colon; HOP-62 NSCLC; RPMI-8226 leukemia; HT29 colon; OVCAR-8 ovarian; BT-549 breast; NCI-H23 lung; HOP-92 NSCLC; UACC-62 melanoma; MDA-MB-435; SK-MEL-28 melanoma; SF-268 CNS; SK-MEL-2 melanoma; OVCAR-5 ovarian; SR leukemia; SF-295 CNS; RXF 393 renal.
What all share (assay): growth of human tumour cells (NCI), 48 h

In the case of `O=c1oc2ccccc2c(O)c1C(c1ccc(-c2ccccc2)cc1)c1c(O)c2ccccc2oc1=O`, the TGI in the experiment on SN12C renal was 33.7 µM; in the experiment on SNB-75 CNS, > 100 µM; in the experiment on HCT-116 colon, 79.1 µM; in the experiment with HOP-62 NSCLC, 55.4 µM; in the experiment on RPMI-8226 leukemia, 95.8 µM; in the experiment with HT29 colon it was 38.3 µM. Also, the TGI in the experiment on OVCAR-8 ovarian is 34.1 µM; with BT-549 breast it was 40.4 µM; in the experiment on NCI-H23 lung, 56.8 µM; with HOP-92 NSCLC it was 48.5 µM; in the experiment on UACC-62 melanoma, 39.5 µM; with MDA-MB-435, 46.9 µM. Besides, the TGI in the experiment with SK-MEL-28 melanoma stood at 32 µM; in the experiment with SF-268 CNS, 57.1 µM; with SK-MEL-2 melanoma it was 56.8 µM.

As for `N#CC(C#N)=c1c2ccccc2c(=C(C#N)C#N)c2ccccc12`, the TGI in the experiment on SN12C renal is 30.7 µM; in the experiment on SNB-75 CNS, 39.8 µM; in the experiment with HCT-116 colon, 34.4 µM; in the experiment with HOP-62 NSCLC, 40.5 µM; in the experiment with RPMI-8226 leukemia, > 100 µM; in the experiment on HT29 colon, 39.5 µM. The TGI in the experiment on OVCAR-8 ovarian was 42.7 µM; in the experiment on BT-549 breast it was 65 µM; with NCI-H23 lung it was 43.7 µM; with HOP-92 NSCLC it was 88.6 µM; with UACC-62 melanoma, 28.5 µM; in the experiment with MDA-MB-435, 40.1 µM. For the same molecule, the TGI was 43.3 µM in the experiment on OVCAR-5 ovarian, 48.3 µM in the experiment on SK-MEL-28 melanoma, 77.5 µM in the experiment on SF-268 CNS and 32.9 µM in the experiment on SK-MEL-2 melanoma.

For `C[C@]12CC[C@H](O)CC1=CC[C@@H]1C2CC[C@]2(C)C(=O)NC(=O)CC12` (stereo partly drawn), the TGI in the experiment on SN12C renal was > 100 µM; in the experiment with SNB-75 CNS, > 100 µM; with HCT-116 colon, > 100 µM; with HOP-62 NSCLC, > 100 µM; with RPMI-8226 leukemia it was 89.8 µM; with HT29 colon, > 100 µM. In addition, the TGI in the experiment on OVCAR-8 ovarian, with SR leukemia, in the experiment with NCI-H23 lung, in the experiment with HOP-92 NSCLC, with UACC-62 melanoma and with SF-295 CNS was > 100 µM each time. Further, the TGI with OVCAR-5 ovarian, in the experiment on SK-MEL-28 melanoma, in the experiment with SF-268 CNS, with SK-MEL-2 melanoma and in the experiment with RXF 393 renal was > 100 µM throughout.

`COc1ccc(N=Nc2ccc3oc(=O)c(C(=O)Nc4ccccc4C)cc3c2)cc1`: the TGI in the experiment on SN12C renal, in the experiment on SNB-75 CNS, in the experiment with HOP-62 NSCLC, with RPMI-8226 leukemia, in the experiment on HT29 colon and in the experiment with OVCAR-8 ovarian was > 10 µM each time. Also, the TGI with SR leukemia, with NCI-H23 lung, in the experiment on HOP-92 NSCLC, with SF-295 CNS, with MDA-MB-435 and in the experiment with OVCAR-5 ovarian was > 10 µM in each case. For the same molecule, the TGI in the experiment on SK-MEL-28 melanoma, in the experiment on SF-268 CNS, in the experiment with SK-MEL-2 melanoma and in the experiment with RXF 393 renal was > 10 µM each time.

Take `CO[C@@]12C[C@@H](C)[C@]34O[C@H]3C[C@]3(C)O[C@]43CC1=C(C)C(=O)O2`: the TGI in the experiment with SN12C renal, in the experiment with HCT-116 colon, in the experiment with RPMI-8226 leukemia, in the experiment on HT29 colon, with OVCAR-8 ovarian and in the experiment with BT-549 breast was > 100 µM in each case. Moreover, the TGI in the experiment with NCI-H23 lung, in the experiment with HOP-92 NSCLC, in the experiment on UACC-62 melanoma, in the experiment with SF-295 CNS, in the experiment with MDA-MB-435 and with OVCAR-5 ovarian was > 100 µM throughout. The TGI in the experiment on SK-MEL-28 melanoma, in the experiment with SF-268 CNS and in the experiment with SK-MEL-2 melanoma was > 100 µM each time.

With `O=C(CC(C(=O)c1ccsc1)c1ccsc1)c1ccsc1` (stereo not drawn), the TGI with SN12C renal, in the experiment with SNB-75 CNS, with HCT-116 colon, with HOP-62 NSCLC, in the experiment with RPMI-8226 leukemia and with HT29 colon was > 100 µM throughout. Besides, the TGI with OVCAR-8 ovarian, with SR leukemia, in the experiment with NCI-H23 lung, in the experiment with UACC-62 melanoma, with SF-295 CNS and in the experiment on MDA-MB-435 was > 100 µM each time. Moreover, the TGI in the experiment on SK-MEL-28 melanoma, in the experiment on SF-268 CNS and in the experiment on SK-MEL-2 melanoma was > 100 µM in each case.

For `CN(C)C(=S)C(Cl)(c1ccccc1)c1ccccc1`, the TGI was > 100 µM in the experiment on SN12C renal; > 100 µM with SNB-75 CNS; > 100 µM with HCT-116 colon; > 100 µM in the experiment with HOP-62 NSCLC; 77.3 µM in the experiment on HT29 colon; > 100 µM in the experiment on OVCAR-8 ovarian. In addition, the TGI with BT-549 breast, with NCI-H23 lung, in the experiment on HOP-92 NSCLC, with UACC-62 melanoma, in the experiment on SF-295 CNS and with MDA-MB-435 was > 100 µM in each case. In addition, the TGI is > 100 µM with OVCAR-5 ovarian, > 100 µM in the experiment with SK-MEL-28 melanoma, > 100 µM in the experiment on SF-268 CNS and 66.8 µM in the experiment on SK-MEL-2 melanoma.

As for `O=C(O)CCCNc1ncc2c(n1)-c1ccccc1OC2`, the TGI with SN12C renal, in the experiment with SNB-75 CNS, in the experiment with HCT-116 colon, in the experiment with HOP-62 NSCLC, in the experiment on RPMI-8226 leukemia and with HT29 colon was > 100 µM each time. The TGI in the experiment on OVCAR-8 ovarian, in the experiment with SR leukemia, in the experiment with NCI-H23 lung, in the experiment on HOP-92 NSCLC, in the experiment with UACC-62 melanoma and in the experiment with SF-295 CNS was > 100 µM in each case. In addition, the TGI in the experiment on MDA-MB-435, in the experiment on OVCAR-5 ovarian, in the experiment on SK-MEL-28 melanoma, in the experiment with SF-268 CNS, with SK-MEL-2 melanoma and in the experiment with RXF 393 renal was > 100 µM each time.
